Literature values, collected in patent US9192159B2, “Azoxystrobin formulations” (priority 2006, dated 2015).

## CO/C=C(/C(=O)OC)c1ccccc1Oc1cc(Oc2ccccc2C#N)ncn1 [Azoxystrobin]
  Solubility in water: low solubility in water
